For test [1], the species on record is Rattus norvegicus. Particulars: Liver, Microsomes.
Test [2] is filed under the species Rattus norvegicus. As to conditions: Liver, Microsomes. The source holds these as a separate data set.
Description: Ability to undergo a P450-dependent oxidative cleavage of the C=N bond by incubating with rat (untreated) liver microsomes in the presence of NADPH
The species named for test [3] is Rattus norvegicus. Kind of test: Ability to undergo a P450-dependent oxidative cleavage of the C=N bond by incubating with rat (treated by DEX) liver microsomes in the presence of NADPH. In kind it is functional.
Test [4] is filed under the species Rattus norvegicus. Kind of test: Ability to undergo a P450-dependent oxidative cleavage of their C=N bond, to release corresponding alkylketone derivative by incubating with rat (treated by DEX) liver microsomes in the presence of the NADPH. In kind it is functional. For orientation: Microsomes from liver hold many membrane-bound enzymes, among them those of drug oxidation.

The species entered for test [5] is Rattus norvegicus. Kind of test: Ability to undergo a P450-dependent oxidative cleavage of their C=N bond, to release NO3- by incubating with rat (treated by DEX) liver microsomes in the presence of NADPH. It is filed as functional.

We go through 17 compounds from ChEMBL document CHEMBL1128622, “Formation of nitrogen oxides including NO from oxidative cleavage of CN(OH) bonds: A general cytochrome P450-dependent reaction” (Bioorg Med Chem Lett, 1995).

As for `N/C(=N/c1ccc(C(F)(F)F)cc1)NO`, the Formation of NO2- in the test filed under Rattus norvegicus [1] is 11 nM; in the test listed under Rattus norvegicus [2] it was less than 0.1 nM.

As for `O/N=C/c1ccc(Cl)cc1`, the Formation of NO2- in the test filed under Rattus norvegicus [1] is 2 nM; in the test filed under Rattus norvegicus [2], less than 0.1 nM.

Regarding `C/C(=N\O)c1ccccc1`, the Formation of NO2- is 3.2 nM in the test listed under Rattus norvegicus [1] and less than 0.1 nM in the test listed under Rattus norvegicus [2].

Regarding `ON=C1CCCCC1`, the Formation of NO2- is 3 nM in the test filed under Rattus norvegicus [1] and less than 0.1 nM in the test filed under Rattus norvegicus [2].

`N/C(=N\O)c1ccccc1`: the figures for the Formation of NO2- in the test listed under Rattus norvegicus [1] and in the test listed under Rattus norvegicus [2] were 2.5 nM and 0.2 nM, respectively.

Turning to `O/N=C/c1ccccc1`, the results for the Formation of NO2- in the test listed under Rattus norvegicus [1] and in the test listed under Rattus norvegicus [2] were 3 nM and less than 0.1 nM, respectively.

Consider `CCCCC/C(C)=N\O`, for which the Formation of NO2- in the test filed under Rattus norvegicus [1] is 7 nM; in the test listed under Rattus norvegicus [2], less than 0.1 nM.

As to `C/C(=N\O)c1ccc(Cl)cc1`, in the test listed under Rattus norvegicus [3], the Formation of NO3- amounted to 1.2 nM. Moreover, the Formation of compound in the test filed under Rattus norvegicus [4] is 6.4 nM. Also, the Formation of NO2- was 6.2 nM in the test listed under Rattus norvegicus [1] and 0.1 nM in the test listed under Rattus norvegicus [2].

On to `CCCCCCOc1ccc(C(=N)NO)cc1`, for which the Formation of NO3- in the test listed under Rattus norvegicus [5] was found to be 8.1 nM. Moreover, in the test filed under Rattus norvegicus [4], the Formation of compound turned out to be 12.5 nM. Further, the Formation of NO2- turned out to be 6.8 nM in the test listed under Rattus norvegicus [1] and 0.6 nM in the test filed under Rattus norvegicus [2].

As for `CCCCCC/C=N/O`, the Formation of NO2- in the test filed under Rattus norvegicus [1] worked out at 3.7 nM; in the test filed under Rattus norvegicus [2] it was 0.2 nM.

Turning to `CCCC/C(CC)=N\O`, the results for the Formation of NO2- in the test filed under Rattus norvegicus [1] and in the test listed under Rattus norvegicus [2] were 5.1 nM and less than 0.1 nM, respectively.

Turning to `N/C(=N\O)N1CCCCC1`, the Formation of NO2- in the test filed under Rattus norvegicus [1] is 79 nM; in the test filed under Rattus norvegicus [2] it was 1.1 nM.

As for `ON=C(NC1CCCCC1)NC1CCCCC1`, the Formation of NO2- was 58 nM in the test listed under Rattus norvegicus [1] and less than 0.1 nM in the test filed under Rattus norvegicus [2].

`N/C(=N/C1CCCCC1)NO`: the values for the Formation of NO2- in the test listed under Rattus norvegicus [1] and in the test listed under Rattus norvegicus [2] were 28.6 nM and less than 0.1 nM, respectively.

Consider `N=C(NO)Nc1ccc(Cl)cc1`, for which the Formation of NO3- in the test filed under Rattus norvegicus [5] was determined as 4.4 nM. Moreover, the Formation of compound in the test filed under Rattus norvegicus [4] turned out to be 17.7 nM. The Formation of NO2- in the test filed under Rattus norvegicus [1] is 18.4 nM; in the test filed under Rattus norvegicus [2], 0.6 nM.

Consider `N/C(=N\O)c1ccc(Cl)cc1`, for which, in the test listed under Rattus norvegicus [5], the Formation of NO3- came out at 1.5 nM. Further, the Formation of compound in the test filed under Rattus norvegicus [4] stood at 5.1 nM. In addition, the values for the Formation of NO2- in the test listed under Rattus norvegicus [1] and in the test listed under Rattus norvegicus [2] were 2.6 nM and 0.7 nM, respectively.

In the case of `CC(C)/N=C(/NO)NC(C)C`, the Formation of NO2- in the test listed under Rattus norvegicus [1] came out at 62 nM; in the test listed under Rattus norvegicus [2], 0.9 nM.
